Consider 91 compounds from a melting point compilation (Tetko et al.; mined from patent text by program, amines drawn as free bases though some values may be those of a salt).

Each structure is given as a SMILES string.

Usually melting point stands for the temperature of the solid-liquid transition. Consider `O=c1c2cc(-c3nnn[nH]3)ccc2oc2ncccc12`, for which the melting point was more than 300 °C.

`COc1ccc(C=C2COCC(=Cc3ccc(OC)c(C)c3C)C2=O)c(C)c1C` had a melting point of 225 to 227 °C. Next, `Cc1c(Cc2c[nH]cn2)ccc(O)c1C(N)=O`: 263 °C. The value for `Nc1ncccc1-c1nc2ccc(-c3ccncc3)nc2n1-c1ccc(CNC(=O)c2ccccc2)cc1` was 231 to 233 °C. The value for `CS(=O)(=O)c1ccc(N2C=CC(N3CCCC3)C(=O)N2c2ccc(F)cc2)cc1` (stereo unspecified) was 192 to 195 °C; that for `COc1cc2[nH]cc(C(=O)C(Cl)(Cl)Cl)c2cc1Br` was 185 to 190 °C; that for `COc1ccc(NC(=O)c2ccc(-c3ccc(-c4noc(C)n4)cc3)c(Cl)c2)cc1N1CCN(C)CC1` was 93 to 95 °C. `CCc1nc2c(C)nc(C)nc2n1-c1ccc(CCOC(=O)NS(=O)(=O)c2ccc(C)cc2)cc1` displayed a melting point of 162 °C. Next, `CC(=O)Oc1ccc2ncc3c(c2c1)CCCC3`: 118 to 119 °C; `CC(C)(C)OC(=O)NC(Cc1ccc(O)cc1)C(=O)N1CCc2c(sc(N)c2C(=O)c2ccccc2)C1` (stereo unspecified): 143 to 145 °C. Next, `OC1CSC(Oc2ccc(-c3cccnc3Cl)nc2)C(O)C1O` (stereo unspecified): 203 °C; `Cn1nc(C(F)(F)F)c(CS(=O)(=O)C2=NOC(C)(C)C2)c1Cl`: 115 to 116 °C; `Cc1nc2c(N)nc3cccnc3c2n1CC1(O)CCN(C(=O)N2CCOCC2)CC1`: 245 to 248 °C. Next, `O=C(O)c1cnn(CCCCN2CCN(c3ncccn3)CC2)c1`: 104 to 105 °C; `C#CCN(Cc1ccc2nc[nH]c(=O)c2c1)c1ccc(C(=O)NCc2cccnc2)cc1`: 137 to 139 °C; `O=C1NCCC[C@@H]1NS(=O)(=O)c1cc(F)cc(F)c1`: 170 to 174 °C. `COCc1nnc(N2N=C(c3ccc([N+](=O)[O-])c(Cl)c3)c3cc4c(cc3C[C@H]2C)OCO4)s1` yielded a melting point of 208 to 210 °C. Next, `O=C(c1ccccc1C(c1ccc(O)cc1)c1ccc(O)cc1)N(C1CCCCC1)C1CCCCC1`: more than 300 °C; `COCCc1ccc(OCC(O)CNC2CCc3ccccc3C2)cc1` (stereo unspecified): 95 to 97 °C; `CC(C)(C)NCC(O)COc1ccc(-c2nc(C#N)c[nH]2)cc1` (stereo unspecified): 174 to 177 °C.

On to `C=C(C)COc1ccc2c(C)cc(=O)oc2c1C(=O)C=Cc1cccc(OC)c1`, for which the melting point fell in the range of 85 to 87 °C. The value for `COCc1nc2c(OC)ccc(C(=O)Cc3ccncc3)c2[nH]1` was 218 to 220 °C; that for `CC(=O)N[C@@H](c1ccccc1)[C@@H](O)C(=O)OC(C)C` was 104 to 106 °C; that for `CCOC(=O)C1=C(CC)NN=C(C(=O)OC)C1c1cccc([N+](=O)[O-])c1` (stereo unspecified) was 139 °C. The value for `CCOCc1nc2cnc3ccccc3c2n1CCCCC(N)=O` was 157 to 158 °C; that for `CC(=O)SCCC(=O)N1NC(=O)CC1C(=O)O` (stereo unspecified) was 205 to 207 °C.

In turn, `O=C(O)C1(C(=O)Nc2ccc(F)cc2F)CC1` returned a melting point of 160 to 163 °C. The value for `NC1CCN(c2c(F)cc3c(=O)c(C(=O)O)cn(C4CC4)c3c2Cl)C1` (stereo unspecified) was 241 to 242 °C; that for `COC(=O)c1ccc(-c2cccc(CO)c2)cc1` was 88 to 89 °C.

In the case of `O=Cc1ccc(-c2nnn[nH]2)cc1`, the melting point is 180 to 182 °C. The value for `COc1ccc(C(=O)Nc2c(Cl)cncc2Cl)cc1OC1C=CCC1` (stereo unspecified) was 177 to 178 °C; that for `CC(C)(C)OC(=O)N1CCN(c2cccc3c2cnn3S(=O)(=O)c2ccccc2)CC1` was 130 °C. On to `COc1ccc(-c2nc(CNC(=O)CC(=O)O)sc2-c2ccc(OC)cc2)cc1`, for which the melting point is 126 to 130 °C. Next, `CC(=O)CCc1cc(OC(C)=O)c(C(C)(C)C)cc1OC(C)=O`: 66.5 to 68 °C. The value for `Nc1ccc(C(=O)N2Cc3cccn3-c3ccccc32)cc1` was 225 to 228 °C.

In turn, `O=C1CC(c2ccco2)Cc2occ(C(F)(F)F)c21` (stereo unspecified) had a melting point of 94 to 95 °C.

`CS(=O)(=O)c1ccc(-n2nc(CNC(=O)Nc3cccc(C(F)(F)F)c3)cc2-c2ccccc2)cc1` came in with a melting point of 108 to 113 °C.

For the compound `N#Cc1ccc(NC(=S)N2CCN(c3cnccn3)CC2)cc1`, the melting point is 208 to 210 °C. Next, `CC(C(=O)O)=C1c2ccccc2C=Cc2ccccc21`: 235 to 236 °C; `Cc1cc(-c2ccc(S(C)(=O)=O)cc2)n(-c2ccc(-c3ccco3)cc2)c1`: 133 to 135 °C; `O=C(O)c1c(O)cccc1OCCC(c1ccccc1)(c1ccccc1)c1ccccc1`: 167 to 168 °C.

Turning to `Cc1c(NC(=O)c2ccc(OC[C@@H]3CCCO3)cc2)ccc2[nH]c(CNCC3CCOCC3)cc12`, the melting point lay within 166 to 167 °C.

Compound `O=C(CCc1cccc(F)c1F)c1cnc2sc3c(n12)CCCCC3` yielded a melting point of 108 to 110 °C. In the case of `CC1=C(CCO)c2cc(F)ccc2/C1=C\c1ccc(S(C)(=O)=O)cc1`, the melting point came to 118 °C. Compound `COc1cc(CCC(=O)C2CCCC2=O)cc(OS(=O)(=O)c2ccc(C)cc2)c1OC` (stereo unspecified) displayed a melting point of 84 °C. Next, `CC12CCC3C(CCC4CC(CC(=O)O)CCC43C)C1CCC2CC=O` (stereo unspecified): 189 to 192 °C; `CCCn1ncnc1COc1nn2c(-c3ccccc3)nnc2cc1-c1ccccc1`: 211 to 213 °C; `N#CC(C#N)CC(=O)c1ccc(Cl)c(Cl)c1`: 142 to 145 °C. Next, `Cc1ccc2onc(-c3ccc(Cl)cc3)c2c1`: 95 °C; `CCOc1ncc(Br)cc1C(=O)O`: 122 to 124 °C; `CC(C)C(NS(=O)(=O)c1ccc(-c2ccccc2)cc1)C(=O)O` (stereo unspecified): 164 to 166 °C. The value for `C=CCN(C)c1c(C=NO)c(=O)n(C)c(=O)n1C` was 95.5 to 97.1 °C; that for `CO[C@@H]1CCCC(c2ccc(C(=O)N3Cc4cccn4Cc4ccccc43)cc2C)=C1C` was 127 to 128 °C.

In turn, `Clc1ccc2c(c1)NCc1ccccc1O2` returned a melting point of 94 to 95 °C. Compound `COC(=O)C1=C(C)NC(c2ccccc2)=C(C(=O)O)C1c1ccc([N+](=O)[O-])cc1` (stereo unspecified) had a melting point of 190 to 191 °C. `Cn1c(N)c(C#N)c(Cl)c1C=O`: the melting point was in the range of 282 to 285 °C. The value for `COc1ccc(CCNC(=O)N(OC(C)=O)C(C)(C)C)cc1OC` was 123 to 125 °C; that for `CC(Cc1ccc(Cl)cc1Cl)NC(=O)c1cn(C)nc1C(F)F` (stereo unspecified) was 157 °C. Next, `CCCOc1cc(C(=O)O)cc(N)c1Cc1ccccc1`: 161 to 162 °C. The compound `CN1CCCC1=NC(=O)Nc1c(Cl)cc(Cl)cc1Cl` yielded a melting point of 160 to 162 °C.

As to `CC(c1ccsc1)N(O)C(N)=O` (stereo unspecified), the melting point lay within 138 to 140 °C. The value for `O=C(Cc1ccccn1)N1CCN(C(=O)Oc2ccc(Oc3ccc(C(F)(F)F)cn3)cc2)CC1` was 143 to 146 °C; that for `CN1C(O)=C(C(=O)Nc2ccccc2Cl)c2cscc2S1(=O)=O` was 152 to 155 °C. In turn, `CC(=O)N(C(C)=O)c1ccc2c(c1)C(C(Cl)(Cl)Cl)OC(C(Cl)(Cl)Cl)O2` (stereo unspecified) gave a melting point of 147 to 148 °C. The value for `O=C1NC(=O)C(=Cc2ccc(OCCNc3ncccn3)cc2)S1` was 234 °C; that for `CCON=C(C(=O)O)c1csc(NC(c2ccccc2)(c2ccccc2)c2ccccc2)n1` was 200 °C.

On to `Cc1ccc(S(=O)(=O)CC(=O)NN=C2C(=O)Nc3ccc(I)cc32)cc1`, for which the melting point came out at 257 °C. The value for `CC[C@@]12C[C@@](C)(O)[C@](O)(c3ccccc3)C[C@H]1CCc1cc(OCc3nnn[nH]3)ccc12` was 108 to 110 °C; that for `O=C1CCC2CCCCC2N1` (stereo unspecified) was 123 to 126 °C; that for `Oc1cc2c(Cl)cc(Br)cc2cc1Br` was 156 to 158 °C. Turning to `Nc1nc2ncn([C@H]3C=C[C@@H](O)C3)c2c(=O)[nH]1` (racemic), the melting point is more than 310 °C.

The compound `CCOC(=O)c1ccc(NC(=O)C=Cc2ccc3ccccc3c2)cc1` returned a melting point of 173 to 175 °C. The value for `O=C(Nc1ccc(-n2nc(C(F)(F)F)cc2C(F)(F)F)cc1)c1ccc(C(F)(F)F)cc1C(F)(F)F` was 200 to 201 °C; that for `O=C(O)Cc1ccc(C(NC(=O)c2ccccc2)C(=O)O)cc1` (stereo unspecified) was 180 to 220 °C; that for `CCCCOCCCCCCCCCCC(=O)O` was 29 to 30.5 °C. Next, `CCCCCCCCCCCCCCCCCCOCCO`: 39 to 41 °C. The value for `CC(C)c1ccc(NC(=O)Cn2cnc3[nH]c(=O)[nH]c(=O)c32)cc1` was 320 to 325 °C. In turn, `O=c1c2c(CCc3ccccc3)n[nH]c2c2cccnc2n1-c1ccccc1` yielded a melting point of 248 to 250 °C. Next, `Nc1nc2c(s1)CCN(CC=Cc1ccccc1[N+](=O)[O-])CC2`: 125 to 128 °C. Next, `CC(C)(C)c1ccc(/C=C/C(=O)Nc2ccccc2)cc1`: 141 °C; `O=S1(=O)C=C(Br)C=C1CO`: 56 to 57 °C; `COc1ccc(S(N)(=O)=O)cc1CC(C)=O`: 138 to 139 °C. The compound `COC(=O)c1ccc(-c2nnc(-c3ccc(OC(F)(F)C(F)(F)F)cc3)o2)cc1` had a melting point of 185 to 191 °C. The value for `COc1ccc2c(c1)-c1c(cc(C)n1C[C@@H](C)O)C2` was 110 °C; that for `Cc1cc(SCc2cc(-c3ccc(Cl)cc3)on2)ccc1OCC(=O)O` was 79 to 80 °C.

`C1COC(NC(C2CC2)C2CC2)=N1` showed a melting point of 105 to 106 °C. Next, `N#Cc1cc(N)ccc1N`: 85 to 87 °C; `C=CCCOc1cc2c(c(Cl)c1Cl)C(=O)C(C)(C1CCCC1)C2` (stereo unspecified): 63 to 65 °C; `CC(=O)N1C[C@H]2CCC[C@H]2OC1=O` (relative stereo): 80 to 83 °C. The value for `COc1cccc2c1CN(c1c(F)cc3c(=O)c(C(=O)O)cn(-c4ccc(F)cc4)c3c1F)C2` was 278 to 284 °C; that for `Cc1cc(F)ccc1-c1nc(N[C@H]2CC[C@H](O)CC2)nc2c1ccc(=O)n2-c1c(F)cccc1F` was 158 to 160 °C.
